Measurements from patent US20240226211A9, “SEAWEED EXTRACTS, ISOLATED COMPOUNDS, AND METHODS OF TREATMENT” (University of Florida Research Foundation, Incorporated, priority 2017, published 2024).
Entries after “also recorded” stand apart in the source; their conditions may differ.

How the values were obtained:
[1] = tested on: ARE-luciferase reporter (human NQO1-ARE) in IMR-32 cells; test: ARE-luc reporter assay in IMR-32 cells; assay type: cell-based; settings: IMR-32 cell line
Excerpt: The ARE-luciferase reporter construct (ARE-luc) contains the core sequence of human NQO1-ARE1. The mock plasmid (pcDNA3-mRFP) was purchased from Addgene (plasmid 13032). The following plasmids were reported by Zhang et a/.2003 [Zhang, D. D., and Hannink, M. (2003) Distinct cysteine residues in Keap1 are required for Keap1-dependent ubiquitination of Nrf2 and for stabilization of Nrf2 by chemopreventive agents and oxidative stress. Mol. Cell. Biol. 23, 8137-8151]. The Keap1-CBD plasmid carries the entire open reading frame (ORF) of human Keap1 fused to the chitin binding domain (CBD) of the Bacillus circulans chitinase A1 gene upstream of the Keap1 stop codon. Oligonucleotide-directed mutagenesis was used to generate the Keap1-C151S-CBD and Keap1-C288S-CBD plasmids. The HA-Cul3 plasmid was constructed by fusing an N-terminal hemagglutinin (HA) tag with a cDNA sequence coding for amino acids 1-380 of human Cul3 gene. The Gal4-Neh2 expression vector contains the codons for the first 97 amino acids (Neh2 domain) of human Nrf2 fused to the ORF of the Gal4 DNA-binding domain
An ARE-luciferase reporter plasmid and CMV-GFP plasmid (to monitor transfection efficiency) were co-transfected into a human androgen-sensitive prostate cancer cell line, LNCaP (6×10^4 cells/well), and a human neuroblastoma cell line, IMR-32 (3×10^4 cells/well), using Fugene® HD (Roche Diagnostics) in 96-well format. […] J Biol Chem. 2002; 277:388-394; Lee J M, Hanson J M, Chu W A, Johnson J A. Phosphatidylinositol 3-kinase, not extracellular signal-regulated kinase, regulates activation of the antioxidant-responsive element in IMR-32 human neuroblastoma cells. […] After 24 hours of incubation, cells were treated with extracts from Cymopolia barbata, a negative control (DMSO, 1%, v/v), and a positive control ([…] sulforaphane, SF, and tert-butylhydroquinone, tBHQ, respectively.) 24 hours post-treatment, luciferase activity was detected using BriteLite detection reagent (PerkinElmer). […]

[2] = tested on: Nqo1; test: Nqo1 transcript levels in RAW264.7 macrophage cells; assay type: cell-based, mouse; settings: 10 μM Compound 1, IFN-γ
Procedure: (§1) The RNeasy Mini Kit (Qiagen) was used to collect total RNA from cells, while for mouse tissue, TRIzol reagent (Invitrogen) was used. In each case, total RNAs (2 μg) were reverse-transcribed into cDNAs, which were used as templates for TaqMan gene expression assay (Applied Biosystems) and detected using the 7300 Real-Time PCR System (Applied Biosystems). Each qPCR sample was tested in triplicate as a 25 μL total reaction volume (12.5 μL of Taqman 2× universal master mix, 1.25 μL of a 20× TaqMan gene expression assay probe, 1 μL of the above cDNA, and 10.25 μL of RNase-free sterile water). The qPCR method was designed as following: 50° C. for 2 min, 95° C. for 10 min, and 40 cycles of 95° C. for 15 s and 60° C. for 1 min. Endogenous controls used included GAPDH for IMR-32 cells and β-actin to normalize for RAW264.7 cells and mouse tissues.
RAW264.7 cells were seeded in 6-well plates (8×10^5 cells/well) and incubated at 37° C. overnight.

[3] = tested on: Nqo1; test: Nqo1 activity assay in MEFs; assay type: cell-based, murine
Procedure: Wild-type (8×10^3 cells/well), Nrf2−/− (8×10^3 cells/well), and Keap1−/− (4×10^3 cells/well) MEFs were seeded into a 96-well format and incubated overnight at 37° C. Cells were treated with a solvent control (DMSO, 1%, v/v) or serial dilutions of isolated compounds or extracts for 40 hours.

[4] = tested on: NO production in MEF cells; test: NO assay in MEF cells; assay type: cell-based, murine; settings: stimulated with IFN-γ and TNF-α
Procedure: RAW264.7 cells (2×10^4 cells/well), wild-type (8×10^3 cells/well), Nrf2−/−(7×10^3 cells/well), and Keap1−/−(5×10^3 cells/well) MEF were seeded into 96-well format. Cells were pretreated for 1 h with a solvent control (DMSO, 1%, v/v) or serial dilutions of isolated compounds or extracts before addition of LPS (1 μg/mL) or IFN-γ (10 ng/mL). […] In each case, 50 μL of the media was combined with 50 μL Griess Reagent (Promega). Absorbance was measured at 540 nm and compared with a calibration curve generated using the provided […] standard.

[5] = tested on: Nqo1; test: Nqo1 transcript levels in mouse organs after oral gavage; assay type: in vivo; settings: mice, particularly digestive tract
Procedure: as §1
The experiments were approved by the Institutional Animal Care & Use Committee at the University of Florida. Groups of 5-10 wild type male mice (C57BL/6J) were used for each treatment type. The mice were maintained under approved standard conditions. […] The tissues were harvested immediately, frozen on dry ice, and kept at −80° C. until analyzed.
A low dose and a high dose of cymopol (1) or the NP extract were administered to 4-week-old male mice via oral gavage.

SMILES: CC(C)=CCC/C(C)=C/Cc1cc(O)c(Br)cc1O [Compound 1, (E)-2-bromo-5-(3,7-dimethylocta-2,6-dien-1-yl)benzene-1,4-diol]
- activation of ARE-luc [1]: most active
- increase of Nqo1 transcript levels [2]: > 96%
- Nqo1 enzymatic activity ([3]; each MEF cell type relative to DMSO control): induce Nqo1 enzymatic activity in a dose-dependent manner
- relative Nqo1 activity, wild-type versus knockout MEFs ([3]; high concentrations): more so in wild-type than in Nrf2 and Keap1 knockout MEFs
- NO production in wild-type MEFs [4]: minimized NO production; also recorded: restore basal level of NO
- anti-inflammatory effects in Nrf2−/− and Keap1−/− MEFs [4]: did not demonstrate appreciable anti-inflammatory effects
- transcript levels of Nqo1 in various organs [5]: elevated transcript levels of Nqo1
